Experimental data reported in ChEMBL document CHEMBL5149964, “Discovery and development of selective aldehyde dehydrogenase 1A1 (ALDH1A1) inhibitors” (Eur J Med Chem, 2021).

Key:
[1] = biological target: T1, Aldehyde dehydrogenase 1A1 (Homo sapiens, UniProt P00352); assay: Inhibition of ALDH1A1 (unknown origin)
T1 sequence (P00352 whole entry): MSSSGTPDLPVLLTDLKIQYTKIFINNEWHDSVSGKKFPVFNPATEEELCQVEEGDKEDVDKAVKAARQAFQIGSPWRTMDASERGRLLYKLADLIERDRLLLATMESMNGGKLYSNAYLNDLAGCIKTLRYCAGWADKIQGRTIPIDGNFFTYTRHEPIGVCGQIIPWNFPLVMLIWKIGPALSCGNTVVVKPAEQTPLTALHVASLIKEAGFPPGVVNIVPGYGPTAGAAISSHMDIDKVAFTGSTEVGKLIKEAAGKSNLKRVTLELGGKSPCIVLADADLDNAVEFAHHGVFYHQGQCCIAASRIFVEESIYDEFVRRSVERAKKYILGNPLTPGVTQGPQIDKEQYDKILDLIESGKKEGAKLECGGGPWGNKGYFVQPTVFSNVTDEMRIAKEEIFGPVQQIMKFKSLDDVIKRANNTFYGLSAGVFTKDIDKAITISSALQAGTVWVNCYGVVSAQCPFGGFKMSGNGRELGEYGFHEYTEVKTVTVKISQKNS

NCI/ADR-RES = assay: cells; details: Homo sapiens
TOV21G = assay: Anticancer activity against human TOV-21G-RT cells assessed as inhibition of cell growth; type: functional, cell-based
A549 = assay: Anticancer activity against human A549 cells assessed as inhibition of cell growth by MTT assay; type: functional, cell-based
[2] = biological target: T1, Aldehyde dehydrogenase 1A1; assay: Inhibition of human ALDH1A1 expressed in Escherichia coli BL21(DE3) pLys cell in presence of NAD+ by fluorescence based assay
[3] = biological target: T2, Retinaldehyde dehydrogenase 3 (Homo sapiens, UniProt P47895); assay: Inhibition of human ALDH1A3 expressed in Escherichia coli BL21(DE3) pLys cell in presence of NAD+ by fluorescence based assay
T2 sequence (P47895 whole entry): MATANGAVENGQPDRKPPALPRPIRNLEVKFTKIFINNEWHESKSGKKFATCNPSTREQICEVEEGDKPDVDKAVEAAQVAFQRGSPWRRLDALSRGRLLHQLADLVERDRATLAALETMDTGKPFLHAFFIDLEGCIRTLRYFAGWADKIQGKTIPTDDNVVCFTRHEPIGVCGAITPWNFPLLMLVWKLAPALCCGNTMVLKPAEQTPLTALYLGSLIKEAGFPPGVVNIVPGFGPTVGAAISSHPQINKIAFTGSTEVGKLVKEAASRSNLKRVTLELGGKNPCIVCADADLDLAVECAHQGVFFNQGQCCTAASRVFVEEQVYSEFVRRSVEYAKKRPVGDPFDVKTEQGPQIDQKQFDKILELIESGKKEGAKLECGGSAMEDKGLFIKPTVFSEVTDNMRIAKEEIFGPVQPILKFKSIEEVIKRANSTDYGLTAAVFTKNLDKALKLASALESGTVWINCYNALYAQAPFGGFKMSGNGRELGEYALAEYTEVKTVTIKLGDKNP

[4] = biological target: T3, Aldehyde dehydrogenase 1A1 (Homo sapiens) (UniProt P00352); assay: Inhibition of human ALDH1A1 assessed as fluorescent enhancement checked in presence of NAD+ by fluorescence based assay
T3 sequence (whole entry): T1 sequence (P00352 whole entry)

[5] = biological target: T1, Aldehyde dehydrogenase 1A1; assay: Inhibition of human ALDH1A1 using propionaldehyde as substrate in presence of NAD+ by UV-visible spectrophometric analysis

In the case of `CCC(SC1=Nc2ccccc2C2=NC(C(C)C)C(=O)N12)C(=O)Nc1ccccc1` (centres undefined), the IC50 [1] is reported as 440 nM.

`COc1cccc2c1C(=O)c1c(O)c3c(c(O)c1C2=O)C[C@@](O)(C(=O)CO)C[C@@H]3O[C@H]1C[C@H](N)[C@H](O)[C@H](C)O1` [DOXORUBICIN] gave an IC50 (NCI/ADR-RES) of 206 nM and an IC50 (TOV21G) of 373 nM.

With `CCCCCC(=O)N1C[C@@H](CCl)c2c1ccc1ccccc21` the IC50 (A549) was 28 nM.

Work on `CCC(SC1=Nc2ccccc2C2=NC(CC(C)C)C(=O)N12)C(=O)Nc1ccccc1` (centres undefined) yielded an IC50 [1] of 570 nM.

Compound `O=C(O)CN1C(=O)S/C(=C/c2ccc(OCc3nc4ccccc4c(=O)n3-c3ccccc3)cc2)C1=O` has an IC50 [2] of 5400 nM and an IC50 [3] of 23000 nM.

For `Cc1cc(C=O)ccc1-c1c2cc(F)c(=O)cc-2oc2cc(O)c(F)cc12`, the Activity [4] was 20.

Compound `CCC(SC1=Nc2ccccc2C2=NC(C(C)C)C(=O)N12)C(=O)N1CCc2ccccc21` (centres undefined) has an IC50 [1] of 840 nM.

`CCC(SC1=Nc2ccccc2C2=NC(CC(C)C)C(=O)N12)C(=O)N1CCc2ccccc21` (centres undefined) gave an IC50 [1] of 1180 nM.

Work on `CC(=O)O[C@H]1C(=O)[C@@]2(C)[C@H]([C@H](OC(=O)c3ccccc3)[C@]3(O)C[C@H](OC(=O)[C@H](O)[C@@H](NC(=O)c4ccccc4)c4ccccc4)C(C)=C1C3(C)C)[C@]1(OC(C)=O)CO[C@@H]1C[C@@H]2O` [PACLITAXEL] yielded an IC50 (NCI/ADR-RES) of 181 nM and an IC50 (TOV21G) of 264 nM.

In the case of `CCC(SC1=Nc2ccccc2C2=NC(C(C)CC)C(=O)N12)C(=O)N1CCc2ccccc21` (centres undefined), the IC50 [1] is reported as 390 nM.

`CC(C)CCn1c(CN2CCN(C(N)=O)CC2)nc2c1c(=O)n(C)c(=O)n2C` gave an IC50 [5] of 210 nM.
